Test results: patent publication US9409905B2, “Antibacterial compounds and methods for use” (PTC THERAPEUTICS, INC., priority 2011, dated 2016)
≈ marks a conversion by molar mass, not a printed value.

Legend:
[1] = tested on: Pseudomonas aeruginosa (P. aeruginosa) 27853; experiment: Antibacterial activity, MIC (Table 5); type: cell-based; conditions: P. aeruginosa 27853, read-out: MIC, 27853
In short: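 Using a microbroth dilution format, the minimum inhibitory concentration was recorded as the lowest tested concentration that stopped visible bacterial growth, expressed in μg/mL.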

[2] = tested on: Klebsiella pneumoniae (K. pneumoniae) 35657; experiment: Antibacterial activity, MIC (Table 4); type: cell-based; conditions: K. pneumoniae 35657, read-out: MIC, 35657
In short: (§1)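 Compounds are serially diluted in microbroth, bacteria are grown under the test conditions, and growth is then inspected macroscopically. The lowest concentration without visible growth is reported as the MIC (μg/mL).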

[3] = tested on: Acinetobacter baumannii (A. baumannii) BAA747; experiment: Antibacterial activity, MIC (Table 4); type: cell-based; conditions: A. baumannii BAA747, read-out: MIC, BAA747
In short: as §1

[4] = tested on: Haemophilus influenzae (H. influenzae) 49247; experiment: Antibacterial activity, MIC (Table 6); type: cell-based
Description: (§2) The antibacterial activity from a microbroth dilution method may be presented as the minimum inhibitory concentration (MIC in μg/mL). The MIC value is the lowest concentration of drug which prevents macroscopically visible growth under test conditions.
(§3) Antibacterial activity of test compounds against the Gram-negative bacteria Haemophilus influenzae (H. influenzae) 49247 is shown in Table 6, Moraxella catarrhalis (M. catarrhalis) 25238 is shown in Table 7 and Neisseria meningitidis (N. meningitidis) 13090 is shown in Table 8.

[5] = tested on: Staphylococcus aureus (S. aureus) 29213; experiment: Antibacterial activity, microbroth dilution MIC (Table 1); type: cell-based; conditions: microbroth dilution, Gram-positive S. aureus 29213, read-out: MIC, 29213
In short: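 Broth microdilution against S. aureus 29213, E. coli 25922 and hypersensitive E. coli BAS849. MIC in μg/mL is the lowest drug concentration preventing macroscopically visible growth under test conditions.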

[6] = tested on: Escherichia coli (E. coli) BAS849; experiment: as above; type: cell-based; conditions: microbroth dilution, super sensitive Gram-negative E. coli BAS849, read-out: MIC, BAS849
In short: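 Values are MICs (μg/mL): the smallest drug amount at which macroscopically visible bacterial growth is absent under assay conditions, from a microdilution method in broth.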

E. coli ELZ4251 = experiment: Antibacterial activity, MIC, multi-drug resistant clinical isolate (Table 3); type: cell-based; conditions: Escherichia coli
In short: (§4)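 Values derive from a microbroth dilution method, taking as MIC (μg/mL) the lowest tested concentration without macroscopically visible growth.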

E. coli ELZ4000 = experiment: as above; type: cell-based; conditions: Escherichia coli, ELZ4000, read-out: MIC ELZ4000
In short: as §4

E. coli LZ3111 = experiment: Antibacterial activity, MIC, quinolone resistant strain (Table 2); type: cell-based; conditions: Escherichia coli, LZ3111, read-out: MIC LZ3111
In short: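 Growth inhibition assessed by serial drug dilution in broth; endpoint was absence of macroscopically visible growth, reported as MIC, μg/mL.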

A. baumannii MXX2240 = experiment: Antibacterial activity, MIC, resistant strain (Table 4); type: cell-based; conditions: Acinetobacter baumannii, MXX2240; resistant A. baumannii MMX2240, multi-drug resistant clinical isolate; read-out: MIC, MMX2240
In short: as §1

K. pneumoniae MXX1232 = experiment: as above; type: cell-based; conditions: Klebsiella pneumoniae, MXX1232; resistant K. pneumoniae MMX1232, multi-drug resistant clinical isolate; read-out: MIC, MMX1232
In short: as §1

E. coli 25922 = experiment: Antibacterial activity, microbroth dilution MIC (Table 1); type: cell-based, Escherichia coli; conditions: Escherichia coli; microbroth dilution; control Gram-negative E. coli 25922 strain; read-out: MIC, 25922
In short: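 Using broth microdilution, MIC endpoints (μg/mL) mark where visible growth no longer appears; the panel spans sensitive and control Gram-negative strains plus a Gram-positive strain.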

[7] = tested on: Moraxella catarrhalis (M. catarrhalis) 25238; experiment: Antibacterial activity, MIC (Table 7); type: cell-based
Description: as §2, §3

[8] = tested on: Neisseria meningitidis (N. meningitidis) 13090; experiment: Antibacterial activity, MIC (Table 8); type: cell-based
Description: as §2, §3

**Q.** Which results are given for `CCNCc1cc2cc(-c3[nH]c(=O)c(C(=O)O)c(O)c3CC)ccc2n1C` [Cpd 165, 5-ethyl-6-(2-((ethylamino)methyl)-1-methyl-1H-indol-5-yl)-4-hydroxy-2-oxo-1,2-dihydropyridine-3-carboxylic acid]?
**A.** MIC [1]: 3.5 to 12.5 µg/mL (≈ 9.47 to 33.8 µM); MIC [2]: < 1 µg/mL; MIC [3]: < 1 µg/mL; MIC [4]: < 1 µg/mL; MIC [5]: 3.5 to 12.5 µg/mL (≈ 9.47 to 33.8 µM); MIC [6]: < 1 µg/mL; MIC (E. coli ELZ4251): 1 to 3.5 µg/mL (≈ 2.71 to 9.47 µM); MIC (E. coli ELZ4000): 3.5 to 12.5 µg/mL (≈ 9.47 to 33.8 µM); MIC (E. coli LZ3111): 1 to 3.5 µg/mL (≈ 2.71 to 9.47 µM); MIC (A. baumannii MXX2240): 3.5 to 12.5 µg/mL (≈ 9.47 to 33.8 µM); MIC (K. pneumoniae MXX1232): 12.5 to 150 µg/mL (≈ 33.8 to 406 µM); MIC (E. coli 25922): < 1 µg/mL; MIC [7]: < 1 µg/mL; MIC [8]: < 1 µg/mL

**Q.** `CCc1c(-c2ccc3c(c2)cc(CN(C)C)n3C)[nH]c(=O)c(C(=O)O)c1O` [Cpd 166, 6-(2-((dimethylamino)methyl)-1-methyl-1H-indol-5-yl)-5-ethyl-4-hydroxy-2-oxo-1,2-dihydropyridine-3-carboxylic acid] was tested. Which MIC [1] did it give?
**A.** The MIC was 3.5 to 12.5 µg/mL (≈ 9.47 to 33.8 µM).

**Q.** And the MIC [2]?
**A.** The MIC was < 1 µg/mL.

**Q.** And the MIC [3]?
**A.** The MIC was < 1 µg/mL.

**Q.** What about the MIC [4] of the same molecule?
**A.** The MIC was < 1 µg/mL.

**Q.** What about the MIC [5] of the same molecule?
**A.** Its MIC is 3.5 to 12.5 µg/mL (≈ 9.47 to 33.8 µM).

**Q.** What about the MIC [6] of the same molecule?
**A.** The MIC was < 1 µg/mL.

**Q.** What about the MIC (E. coli ELZ4251) of the same molecule?
**A.** Its MIC is 3.5 to 12.5 µg/mL (≈ 9.47 to 33.8 µM).

**Q.** And the MIC (E. coli ELZ4000)?
**A.** The MIC was 12.5 to 150 µg/mL (≈ 33.8 to 406 µM).

**Q.** And the MIC (E. coli LZ3111)?
**A.** The MIC was 3.5 to 12.5 µg/mL (≈ 9.47 to 33.8 µM).

**Q.** What about the MIC (A. baumannii MXX2240) of the same molecule?
**A.** The MIC was 1 to 3.5 µg/mL (≈ 2.71 to 9.47 µM).

**Q.** What about the MIC (K. pneumoniae MXX1232) of the same molecule?
**A.** The MIC was 12.5 to 150 µg/mL (≈ 33.8 to 406 µM).

**Q.** What about the MIC (E. coli 25922) of the same molecule?
**A.** Its MIC is < 1 µg/mL.

**Q.** What about the MIC [7] of the same molecule?
**A.** Its MIC is < 1 µg/mL.

**Q.** And the MIC [8]?
**A.** Its MIC is < 1 µg/mL.

**Q.** Which MIC [1] does the source give for `CCc1c(-c2ccc3c(c2)cc(CN(CC)CC)n3C)[nH]c(=O)c(C(=O)O)c1O` [Cpd 167, 6-(2-((diethylamino)methyl)-1-methyl-1H-indol-5-yl)-5-ethyl-4-hydroxy-2-oxo-1,2-dihydropyridine-3-carboxylic acid] here?
**A.** Its MIC is 12.5 to 150 µg/mL (≈ 31.4 to 377 µM).

**Q.** And the MIC [2]?
**A.** Its MIC is 1 to 3.5 µg/mL (≈ 2.52 to 8.81 µM).

**Q.** What about the MIC [3] of the same molecule?
**A.** The MIC was 1 to 3.5 µg/mL (≈ 2.52 to 8.81 µM).

**Q.** What about the MIC [4] of the same molecule?
**A.** The MIC was < 1 µg/mL.

**Q.** And the MIC [5]?
**A.** The MIC was 12.5 to 150 µg/mL (≈ 31.4 to 377 µM).

**Q.** And the MIC [6]?
**A.** Its MIC is < 1 µg/mL.

**Q.** And the MIC (E. coli ELZ4251)?
**A.** Its MIC is 3.5 to 12.5 µg/mL (≈ 8.81 to 31.4 µM).

**Q.** And the MIC (E. coli ELZ4000)?
**A.** The MIC was 12.5 to 150 µg/mL (≈ 31.4 to 377 µM).

**Q.** What about the MIC (E. coli LZ3111) of the same molecule?
**A.** The MIC was 3.5 to 12.5 µg/mL (≈ 8.81 to 31.4 µM).

**Q.** What about the MIC (A. baumannii MXX2240) of the same molecule?
**A.** Its MIC is 3.5 to 12.5 µg/mL (≈ 8.81 to 31.4 µM).

**Q.** What about the MIC (K. pneumoniae MXX1232) of the same molecule?
**A.** Its MIC is 12.5 to 150 µg/mL (≈ 31.4 to 377 µM).

**Q.** What about the MIC (E. coli 25922) of the same molecule?
**A.** The MIC was < 1 µg/mL.

**Q.** What about the MIC [7] of the same molecule?
**A.** The MIC was < 1 µg/mL.

**Q.** What about the MIC [8] of the same molecule?
**A.** Its MIC is < 1 µg/mL.

**Q.** What does the source list for `CCc1c(-c2ccc3c(c2)cc(CN2CCOCC2)n3C)[nH]c(=O)c(C(=O)O)c1O` [Cpd 168, 5-ethyl-4-hydroxy-6-(1-methyl-2-(morpholinomethyl)-1H-indol-5-yl)-2-oxo-1,2-dihydropyridine-3-carboxylic acid]?
**A.** MIC [1]: 12.5 to 150 µg/mL (≈ 30.4 to 365 µM); MIC [2]: 1 to 3.5 µg/mL (≈ 2.43 to 8.51 µM); MIC [3]: 1 to 3.5 µg/mL (≈ 2.43 to 8.51 µM); MIC [4]: < 1 µg/mL; MIC [5]: 1 to 3.5 µg/mL (≈ 2.43 to 8.51 µM); MIC [6]: < 1 µg/mL; MIC (E. coli ELZ4251): 12.5 to 150 µg/mL (≈ 30.4 to 365 µM); MIC (E. coli ELZ4000): 12.5 to 150 µg/mL (≈ 30.4 to 365 µM); MIC (E. coli LZ3111): 3.5 to 12.5 µg/mL (≈ 8.51 to 30.4 µM); MIC (A. baumannii MXX2240): 3.5 to 12.5 µg/mL (≈ 8.51 to 30.4 µM); MIC (K. pneumoniae MXX1232): 12.5 to 150 µg/mL (≈ 30.4 to 365 µM); MIC (E. coli 25922): 1 to 3.5 µg/mL (≈ 2.43 to 8.51 µM); MIC [7]: < 1 µg/mL; MIC [8]: < 1 µg/mL

**Q.** `CCc1c(-c2ccc3c(c2)cc(CN2CCN(C)CC2)n3C)[nH]c(=O)c(C(=O)O)c1O` [Cpd 169, 5-ethyl-4-hydroxy-6-(1-methyl-2-((4-methylpiperazin-1-yl)methyl)-1H-indol-5-yl)-2-oxo-1,2-dihydropyridine-3-carboxylic acid] was tested. Which MIC [1] did it give?
**A.** The MIC was 12.5 to 150 µg/mL (≈ 29.4 to 353 µM).

**Q.** And the MIC [2]?
**A.** Its MIC is 1 to 3.5 µg/mL (≈ 2.36 to 8.24 µM).

**Q.** What about the MIC [3] of the same molecule?
**A.** Its MIC is 1 to 3.5 µg/mL (≈ 2.36 to 8.24 µM).

**Q.** And the MIC [4]?
**A.** Its MIC is 1 to 3.5 µg/mL (≈ 2.36 to 8.24 µM).

**Q.** What about the MIC [5] of the same molecule?
**A.** Its MIC is 3.5 to 12.5 µg/mL (≈ 8.24 to 29.4 µM).

**Q.** And the MIC [6]?
**A.** The MIC was < 1 µg/mL.

**Q.** And the MIC (E. coli ELZ4251)?
**A.** Its MIC is 12.5 to 150 µg/mL (≈ 29.4 to 353 µM).

**Q.** And the MIC (E. coli ELZ4000)?
**A.** Its MIC is 12.5 to 150 µg/mL (≈ 29.4 to 353 µM).

**Q.** And the MIC (E. coli LZ3111)?
**A.** Its MIC is 3.5 to 12.5 µg/mL (≈ 8.24 to 29.4 µM).

**Q.** And the MIC (A. baumannii MXX2240)?
**A.** The MIC was 12.5 to 150 µg/mL (≈ 29.4 to 353 µM).

**Q.** What about the MIC (K. pneumoniae MXX1232) of the same molecule?
**A.** Its MIC is 12.5 to 150 µg/mL (≈ 29.4 to 353 µM).

**Q.** What about the MIC (E. coli 25922) of the same molecule?
**A.** The MIC was 1 to 3.5 µg/mL (≈ 2.36 to 8.24 µM).

**Q.** And the MIC [7]?
**A.** The MIC was < 1 µg/mL.

**Q.** What about the MIC [8] of the same molecule?
**A.** Its MIC is < 1 µg/mL.
